Experimental findings from article PMC7723077, “Spatial Profiles of Phosphate in Roots Indicate Developmental Control of Uptake, Recycling, and Sequestration” (Plant Physiology, 2020) are described below.

By Kd is commonly meant the concentration at which binding is half-saturated. High values mean lower affinity, low ones higher affinity.

The test deals with T1, cpFLIPPi-5.3m.
T1 construct: gene PiBP
The conditions noted are these: in vivo, root epidermal cells of transition zone; injection buffer 50 mM MOPS-KOH pH 7.3, 0.5 mM MgCl2, total K+ 75 mM.

Compound `O=P(O)(O)O` [Pi, inorganic phosphate] yielded a Kd of 7.4 ± 1.7 mM.
